# Source: patent US20050197350A1, “Novel quinoline, tetrahydroquinazoline, and pyrimidine derivatives and methods of treatment related to the use thereof” (TAISHO PHARMACEUTICAL CO., LTD., priority 2003, published 2005)
# Counter-ions that a name gives are not always drawn.
# Target: MCH receptor (Homo sapiens, UniProt Q99705)
# Experiment: High throughput functional screening FLIPR/FDSS6000 (intracellular Ca2+ evoked by MCH)
# Format: cell-based
# Settings: FLIPR/FDSS, antagonist activity vs 50 nM MCH; class by percent of control at 10^−7 M or IC50; table after the classification; read-out: class
# Excerpt: High Throughput Functional Screening: FLIPR™
# This assay utilized a non-endogenous, constitutively active version of the MCH receptor.
# The concentration of free Ca^2+ in the cytosol of any cell is extremely low, whereas its concentration in the extracellular fluid and endoplasmic reticulum (ER) is very high. Thus, there is a large gradient tending to drive Ca^2+ into the cytosol across both the plasma membrane and ER. The FLIPR™ and FDSS6000™ systems (Molecular Devices Corporation, […] Photonics K.K.) are designed to perform functional cell-based assays, such as the measurement of intracellular calcium for high-throughput screening. The measurement of fluorescent is associated with calcium release upon activation of the Gq-coupled receptors.
# Fluorometric Imaging Plate Reader system was used to allow for rapid, kinetic measurements of intracellular fluorescence in 96 well microplates (or 384 well microplates). Simultaneous measurements of fluorescence in all wells can be made by FLIPR or FDSS6000™ every second with high sensitivity and precision. These systems are ideal for measuring cell-based functional assays such as monitoring the intracellular calcium fluxes that occur within seconds after activation of the Gq coupled receptor.
# Briefly, the cells are seeded into 96 well at 5.5×10^4 cells/well with complete culture media (Dulbecco's Modified Eagle Medium with 10% fetal bovine serum, 2 mM L-glutamine, 1 mM sodium pyruvate and 0.5 mg/ml G418, pH 7.4) for the assay next day. On the day of assay, the media is removed and the cells are incubated with 100 μl of loading buffer (4 μM Fluo4-AM in complete culture media containing 2.5 mM Probenicid, 0.5 mg/ml and 0.2% bovine serum albumin) in 5% CO2 incubator at 37° C. for 1 hr. The loading buffer is removed, and the cells are washed with wash buffer (Hank's Balanced Salt Solution containing 2.5 mM Probenicid, 20 mM HEPES, 0.5 mg/ml and 0.2% bovine serum albumin, pH 7.4)). One hundred fifty μl of wash buffer containing various concentrations of test compound is added to the cells, and the cells are incubated in 5% CO2 incubator at 37° C. for 30 min. […] 530 nm for 290 second. When antagonist activity of compound is tested, 50 nM of MCH is used.
# Use of FLIPR™ and FDSS6000™ can be accomplished by following manufacturer's instruction (Molecular Device Corporation and […] Photonics K.K.).
row,SMILES,IC50 [nM]
1,"CNc1cc(N[C@H]2CC[C@@H](CNCc3ccc(Br)cc3OC(F)(F)F)CC2)nc2ccccc12 [Example 3, N^2-{cis-4-[(4-Bromo-2-trifluoromethhxy-benzyl)-amino-methyl]-cyclohexyl}-N^4-methyl-quinoline-2,4-diamine dihydrochloride]",< 50
2,"CN(C)c1cc(N[C@H]2CC[C@@H](NCc3ccc(Br)cc3OC(F)(F)F)CC2)nc2ccccc12 [Example 5, N^2-[cis-4-(4-Bromo-2-trifluoromethoxy-benzyl)-amino-cyclohexyl]-N^4,N^4-dimethyl-quinoline-2,4-diamine dihydrochloride]",50 to 200
3,"CN(C)c1cc(N[C@H]2CC[C@@H](NCCc3ccc(Br)cc3OC(F)(F)F)CC2)nc2ccccc12 [Example 6, N^2-{cis-4-[2-(4-Bromo-2-trifluoromethoxy-phenyl)ethylamino]-cyclohexyl}-N^4,N^4-dimethyl-quinoline-2,4-diamine dihydrochloride]",50 to 200
4,"CN(C)c1cc(N[C@H]2CC[C@@H](CNCc3ccc(Br)cc3OC(F)(F)F)CC2)nc2ccccc12 [Example 7, N^2-{cis-4-[(4-Bromo-2-trifluoromethoxy-benzyl)amino-methyl]-cyclohexyl}-N^4,N^4-dimethyl-quinoline-2,4-diamine dihydrochloride]",< 50
5,"CNc1nc(N[C@H]2CC[C@@H](NCc3ccc(Br)cc3OC(F)(F)F)CC2)nc2c1CCCC2 [Example 9, N^2-[cis-4-(4-Bromo-2-trifluoromethoxy-benzyl)amino-cyclohexyl]-N^4-methyl-5,6,7,8-tetrahydro-quinazoline-2,4-diamine dihydrochloride]",> 200
6,"CNc1nc(N[C@H]2CC[C@@H](NCCc3ccc(Br)cc3OC(F)(F)F)CC2)nc2c1CCCC2 [Example 10, N^2-{cis-4-[2-(4-Bromo-2-trifluorometboxy-phenyl)-ethylamino]-cyclohexyl}-N^4-methyl-5,6,7,8-tetrahydro-quinazoline-2,4-diamine dihydrochloride]",50 to 200
7,"CNc1nc(N[C@H]2CC[C@@H](CNCc3ccc(Br)cc3OC(F)(F)F)CC2)nc2c1CCCC2 [Example 11, N^2-{cis-4-[(4-Bromo-2-trifluoromethoxy-beny)amino-methyl]-cyclobexyl}-N^4-methyl-5,6,7,8-tetrahydro-quinazoline-2,4-diamine dihydrochloride]",< 50
8,"CN(C)c1nc(N[C@H]2CC[C@@H](NCc3ccc(Br)cc3OC(F)(F)F)CC2)nc2c1CCCC2 [Example 13, N^2-[cis-4-(4-Bromo-2-trifluoromethoxy-benzyl)-amino-cyclobexyl]-N^4,N^4-dimethyl-5,6,7,8-tetrahydro-quinazoline-2,4-diamine dihydrochloride]",> 200
9,"CN(C)c1nc(N[C@H]2CC[C@@H](NCCc3ccc(Br)cc3OC(F)(F)F)CC2)nc2c1CCCC2 [Example 14, N^2-{cis-4-[2-(4-Bromo-2-trifluoromethoxy-phenyl)-ethylamino]-cyclohexyl}-N^4,N^4-dimethyl-5,6,7,8-tetrahydro-quinazoline-2,4-diamine dihydrochloride]",< 50
10,"CN(C)c1ccnc(N[C@H]2CC[C@@H](NCc3ccc(Br)cc3OC(F)(F)F)CC2)n1 [Example 17, N^2-[cis-4-(4-Bromo-2-trifluoromethoxy-benzyl)-amino-cyclohexyl]-N^4,N^4-dimethyl-pyrimidin-2,4-diamine dihydrochloride]",50 to 200
11,"CN(C)c1ccnc(N[C@H]2CC[C@@H](NCCc3ccc(Br)cc3OC(F)(F)F)CC2)n1 [Example 18, N^2-{cis-4-[2-(4-Bromo-2-trifluoromethoxy-phenyl)-ethylamino]-cyclohexyl}-N^4,N^4-dimethyl-pyrimidine-2,4-diamine dihydrochloride]",< 50
12,"O=C(N[C@H]1CC[C@@H](Nc2ccc3ccccc3n2)CC1)c1ccc(F)c(F)c1 [Example 3031, 3,4-Difluoro-N-[cis-4-(quinolin-2-ylamino)-cyclohexyl]-benzamide hydrochloride]",< 50
13,"O=C(N[C@H]1CC[C@@H](Nc2ccc3ccccc3n2)CC1)c1cccnc1Oc1ccccc1 [Example 3032, 2-Phenoxy-N-[cis-4-(quinolin-2-ylamino)-cyclohexyl]-nicotinamide hydrochloride]",< 50
14,"Cc1cccc(C(=O)N[C@H]2CC[C@@H](Nc3ccc4ccccc4n3)CC2)c1 [Example 3033, 3-Methyl-N-[cis-4-(quinolin-2-ylamino)-cyclohexyl]-benzamide hydrochloride]",< 50

# More lines, now with the values ahead:
row,IC50 [nM],SMILES
1,< 50,"O=C(N[C@H]1CC[C@@H](Nc2ccc3ccccc3n2)CC1)c1cccc(Cl)c1 [Example 3035, 3-Chloro-N-[cis-4-(quinolin-2-ylamino)-cyclohexyl]-benzamide hydrochloride]"
2,< 50,"O=C(N[C@H]1CC[C@@H](Nc2ccc3ccccc3n2)CC1)c1csc([N+](=O)[O-])c1 [Example 3036, 5-Nitro-thiophene-3-carboxylic acid [cis-4-(quinolin-2-ylamino)-cyclohexyl]-amide hydrochloride]"
3,> 200,"O=C(N[C@H]1CC[C@@H](Nc2ccc3ccccc3n2)CC1)c1cccnc1Cl [Example 3037, 2-Chloro-N-[cis-4-(quinolin-2-ylamino)-cyclohexyl]-nicotinamide hydrochloride]"
4,< 50,"O=C(N[C@H]1CC[C@@H](Nc2ccc3ccccc3n2)CC1)c1ccc(F)c(Cl)c1 [Example 3038, 3-Chloro-4-fluoro-N-[cis-4-(quinolin-2-ylamino)-cyclohexyl]-benzamide hydrochloride]"
5,< 50,"COc1cc(OC)cc(C(=O)N[C@H]2CC[C@@H](Nc3ccc4ccccc4n3)CC2)c1 [Example 3039, 3,5-Dimethoxy-N-[cis-4-(quinolin-2-ylamino)-cyclohexyl]-benzamide hydrochloride]"
6,< 50,"O=C(N[C@H]1CC[C@@H](Nc2ccc3ccccc3n2)CC1)c1ccc(Cl)c(Cl)c1 [Example 3040, 3,4-Dichloro-N-[cis-4-(quinolin-2-ylamino)-cyclohexyl]-benzamide hydrochloride]"
7,< 50,"O=C(N[C@H]1CC[C@@H](Nc2ccc3ccccc3n2)CC1)c1ccc2nonc2c1 [Example 3041, Benzo[2,1,3]oxadiazole-5-carboxylic acid-[cis-4-(quinolin-2-ylamino)-cyclohexyl]-amide hydrochloride]"
8,< 50,"Cn1cc([N+](=O)[O-])cc1C(=O)N[C@H]1CC[C@@H](Nc2ccc3ccccc3n2)CC1 [Example 3042, 1-Methyl-4-nitro-1H-pyrrole-2-carboxylic acid [cis-4-(quinolin-2-ylamino)-cyclohexyl]-amide hydrochloride]"
9,< 50,"O=C(N[C@H]1CC[C@@H](Nc2ccc3ccccc3n2)CC1)C1c2ccccc2Oc2ccccc21 [Example 3043, 9H-Xanthene-9-carboxylic acid [cis-4-(quinolin-2-ylamino)-cyclohexyl]-amide hydrochloride]"
10,50 to 200,"O=C(N[C@H]1CC[C@@H](Nc2ccc3ccccc3n2)CC1)c1ccc(-c2ccc(Cl)cc2)o1 [Example 3044, 5-(4-Chloro-phenyl)-furan-2-carboxylic acid [cis-4-(quinolin-2-ylamino)-cyclohexyl]-amide hydrochloride]"
11,< 50,"O=C(N[C@H]1CC[C@@H](Nc2ccc3ccccc3n2)CC1)c1cccc([N+](=O)[O-])c1 [Example 3045, 3-Nitro-N-[cis-4-(quinolin-2-ylamino)-cyclohexyl]-benzamide hydrochloride]"
12,< 50,"Cc1cc(C(=O)N[C@H]2CC[C@@H](Nc3ccc4ccccc4n3)CC2)ccc1F [Example 3046, 4-Fluoro-3-methyl-N-[cis-4-(quinolin-2-ylamino)-cyclohexyl]-benzamide hydrochloride]"
13,< 50,"O=C(N[C@H]1CC[C@@H](Nc2ccc3ccccc3n2)CC1)c1cccc(Br)c1 [Example 3047, 3-Bromo-N-[cis-4-(quinolin-2-ylamino)-cyclohexyl]-benzamide hydrochloride]"

# Same assay, conditions: FLIPR/FDSS, antagonist activity vs 50 nM MCH; representative examples; read-out: IC50
row,IC50 [nM],SMILES
1,11,"CN(C)c1cc(N[C@H]2CC[C@@H](CNCc3ccc(Br)cc3OC(F)(F)F)CC2)nc2ccccc12 [Example 7, N^2-{cis-4-[(4-Bromo-2-trifluoromethoxy-benzyl)amino-methyl]-cyclohexyl}-N^4,N^4-dimethyl-quinoline-2,4-diamine dihydrochloride]"
2,2.1,"Cc1cnc(N[C@H]2CC[C@@H](NC(=O)c3ccc(F)c(F)c3)CC2)nc1N(C)C [Example 2524, N-(cis-4-{[4-(Dimethylamino)-5-methylpyrimidin-2-yl]amino}cyclohexyl)-3,4-difluorobenzamide hydrochloride]"
3,7.6,"Cc1cccc(C(=O)N[C@H]2CC[C@@H](Nc3nc(C)cc(N(C)C)n3)CC2)c1 [Example 2526, N-(cis-4-{[4-(Dimethylamino)-6-methylpyrimidin-2-yl]amino}cyclohexyl)-3-methylbenzamide trifluoroacetate]"
